Laboratory results from ChEMBL document CHEMBL3822376, “Potent anticholinesterasic and neuroprotective pyranotacrines as inhibitors of beta-amyloid aggregation, oxidative stress and tau-phosphorylation for Alzheimer's disease” (Eur J Med Chem, 2016).
Activity calls are given as the source filed them. No cut-off for these calls is given here.

Legend:
SH-SY5Y [1] = test: cells; conditions: Homo sapiens, 24 h
Description: Neuroprotective activity against rotenone/oligomycin-A-induced cell death in human SH-SY5Y cells assessed as increase in cell viability after 24 hrs by XTT assay

in vitro [2] = conditions: human, SH-SY5Y cells
Description: Neurotoxicity in human SH-SY5Y cells assessed as cell viability at 1 uM after 24 hrs by XTT assay relative to control

SH-SY5Y [3] = test: Neuroprotective activity against amyloid beta (1 to 40)-induced cell death in human SH-SY5Y cells assessed as increase in cell viability at 10 uM after 48 hrs by XTT assay; assay type: functional, cell-based
in vitro [4] = conditions: human, HepG2 cells
Description: (§1) Hepatotoxicity in human HepG2 cells assessed as reduction in cell viability by MTT assay

SH-SY5Y [5] = test: Neuroprotective activity in human SH-SY5Y cells assessed as reversal of 20 nM okadaic acid-induced cell death at 1 to 10 uM after 24 hrs by XTT assay; assay type: functional, cell-based
in vitro [6] = conditions: human, SH-SY5Y cells; remark: listed apart in the source
Description: Neurotoxicity in human SH-SY5Y cells assessed as cell viability at 5 uM after 24 hrs by XTT assay relative to control

in vitro [7] = conditions: human, SH-SY5Y cells; remark: listed apart in the source
Description: Neurotoxicity in human SH-SY5Y cells assessed as cell viability at 50 uM after 24 hrs by XTT assay relative to control

Acetylcholinesterase [8] = target: T1, Acetylcholinesterase (Electrophorus electricus, UniProt O42275)
T1 sequence (O42275 whole entry): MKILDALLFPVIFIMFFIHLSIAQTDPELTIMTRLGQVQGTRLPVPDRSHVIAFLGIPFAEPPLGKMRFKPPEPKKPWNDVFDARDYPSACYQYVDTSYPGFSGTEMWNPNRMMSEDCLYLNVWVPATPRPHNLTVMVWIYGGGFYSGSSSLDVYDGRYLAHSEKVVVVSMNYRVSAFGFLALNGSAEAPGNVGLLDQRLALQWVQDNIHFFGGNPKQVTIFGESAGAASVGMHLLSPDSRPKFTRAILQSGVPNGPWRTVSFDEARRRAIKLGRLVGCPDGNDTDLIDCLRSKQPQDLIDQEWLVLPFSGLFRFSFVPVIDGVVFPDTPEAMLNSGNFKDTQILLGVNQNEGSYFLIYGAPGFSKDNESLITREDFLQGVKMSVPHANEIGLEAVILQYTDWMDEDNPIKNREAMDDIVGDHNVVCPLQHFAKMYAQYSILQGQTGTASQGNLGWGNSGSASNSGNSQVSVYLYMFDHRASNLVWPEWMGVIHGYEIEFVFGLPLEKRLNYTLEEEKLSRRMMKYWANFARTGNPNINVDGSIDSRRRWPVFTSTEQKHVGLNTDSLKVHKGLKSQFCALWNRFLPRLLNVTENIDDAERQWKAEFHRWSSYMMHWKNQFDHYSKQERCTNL
Description: Inhibition of electric eel AChE using acetylcholine as substrate preincubated for 15 mins followed by substrate addition by Ellman's method

in vitro [9] = conditions: human, SH-SY5Y cells; remark: listed apart in the source
Description: Neurotoxicity in human SH-SY5Y cells assessed as cell viability at 0.1 uM after 24 hrs by XTT assay relative to control

in vitro [10] = conditions: human, SH-SY5Y cells; remark: listed apart in the source
Description: Neurotoxicity in human SH-SY5Y cells assessed as cell viability at 25 uM after 24 hrs by XTT assay relative to control

in vitro [11] = conditions: human, SH-SY5Y cells; remark: listed apart in the source
Description: Neurotoxicity in human SH-SY5Y cells assessed as cell viability at 10 uM after 24 hrs by XTT assay relative to control

[12] = target: Cholinesterase (Equus caballus) (UniProt P81908); test: Inhibition of horse serum BuChE using […] as substrate at 50 uM preincubated for 15 mins followed by substrate addition by Ellman's method relative to control
Chain of Cholinesterase (Equus caballus) (P81908 whole entry): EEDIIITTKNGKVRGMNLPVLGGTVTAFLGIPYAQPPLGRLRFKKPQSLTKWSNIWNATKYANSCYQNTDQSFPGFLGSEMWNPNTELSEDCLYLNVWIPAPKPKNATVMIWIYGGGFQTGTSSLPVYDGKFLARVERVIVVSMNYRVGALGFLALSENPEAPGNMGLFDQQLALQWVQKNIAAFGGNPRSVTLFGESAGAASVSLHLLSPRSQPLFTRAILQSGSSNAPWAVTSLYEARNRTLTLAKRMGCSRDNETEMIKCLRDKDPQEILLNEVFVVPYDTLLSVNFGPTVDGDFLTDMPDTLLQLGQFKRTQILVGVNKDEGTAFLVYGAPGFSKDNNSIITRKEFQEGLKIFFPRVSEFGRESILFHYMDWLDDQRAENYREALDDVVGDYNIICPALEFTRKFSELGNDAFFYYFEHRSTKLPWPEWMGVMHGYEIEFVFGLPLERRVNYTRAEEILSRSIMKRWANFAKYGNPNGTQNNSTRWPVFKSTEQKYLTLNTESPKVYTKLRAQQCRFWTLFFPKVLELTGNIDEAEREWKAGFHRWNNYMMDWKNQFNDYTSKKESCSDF

SH-SY5Y [13] = test: Neuroprotective activity against 20 nM okadaic acid-induced cell death in human SH-SY5Y cells at 5 to 10 uM after 24 hrs by phase contrast microscopic analysis; assay type: functional, cell-based
SH-SY5Y [14] = test: Neuroprotective activity against amyloid beta (1 to 40)-induced cell death in human SH-SY5Y cells at 10 uM after 48 hrs by phase contrast microscopic analysis; assay type: functional, cell-based
[15] = target: Acetylcholinesterase (Homo sapiens) (UniProt P22303); test: Inhibition of AChE in human SH-SY5Y cells assessed as decrease in okadaic acid-induced tau phosphorylation at Ser-396 residue at 10 uM after 24 hrs by Western blot analysis; assay type: cell-based
Chain of Acetylcholinesterase (Homo sapiens) (P22303 whole entry): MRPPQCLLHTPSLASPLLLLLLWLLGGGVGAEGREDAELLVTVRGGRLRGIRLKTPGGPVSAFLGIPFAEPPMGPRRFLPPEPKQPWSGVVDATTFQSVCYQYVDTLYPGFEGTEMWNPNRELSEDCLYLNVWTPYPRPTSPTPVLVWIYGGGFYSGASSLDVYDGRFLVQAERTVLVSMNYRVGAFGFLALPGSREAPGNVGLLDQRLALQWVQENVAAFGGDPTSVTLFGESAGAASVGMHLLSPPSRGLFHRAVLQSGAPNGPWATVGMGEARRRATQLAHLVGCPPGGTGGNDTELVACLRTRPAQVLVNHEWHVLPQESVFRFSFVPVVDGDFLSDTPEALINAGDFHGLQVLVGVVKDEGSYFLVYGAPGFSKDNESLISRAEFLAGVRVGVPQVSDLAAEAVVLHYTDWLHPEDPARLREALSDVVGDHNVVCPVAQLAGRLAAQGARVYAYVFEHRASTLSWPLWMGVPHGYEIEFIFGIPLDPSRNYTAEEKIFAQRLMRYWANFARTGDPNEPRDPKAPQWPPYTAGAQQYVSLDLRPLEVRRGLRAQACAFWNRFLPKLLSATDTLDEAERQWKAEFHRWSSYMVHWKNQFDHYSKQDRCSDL

[16] = target: Acetylcholinesterase (Homo sapiens) (UniProt P22303); test: Inhibition of AChE in human SH-SY5Y cells assessed as decrease in okadaic acid-induced tau oligomerization at 10 uM after 24 hrs by Western blot analysis; assay type: cell-based
[17] = target: Acetylcholinesterase (Homo sapiens) (UniProt P22303); test: Inhibition of AChE in human SH-SY5Y cells assessed as inhibition of amyloid beta (1 to 40) (unknown origin)-induced tau phosphorylation at Ser-396 residue at 5 to 10 uM after 48 hrs by Western blot analysis; assay type: cell-based
in vitro [18] = conditions: human, HepG2 cells; remark: listed apart in the source
[19] = target: Acetylcholinesterase (Homo sapiens) (UniProt P22303); test: Inhibition of AChE in human SH-SY5Y cells assessed as inhibition of amyloid beta (1 to 40) (unknown origin)-induced amyloid beta aggregation at 5 to 10 uM measured every 24 hrs for 7 days by Thioflavin T based fluorometric assay; assay type: cell-based
SH-SY5Y [20] = test: Neuroprotective activity in human SH-SY5Y cells assessed as reversal of 15 nM okadaic acid-induced cell death at 1 to 10 uM after 24 hrs by XTT assay; assay type: functional, cell-based
[21] = target: Acetylcholinesterase (Homo sapiens) (UniProt P22303); test: Inhibition of AChE in human SH-SY5Y cells assessed as reduction in rotenone/oligomycin-A-induced tau phosphorylation at Ser-396 residue at 10 uM after 24 hrs by Western blot analysis; assay type: cell-based
Acetylcholinesterase [22] = target: T1, Acetylcholinesterase; test: Mixed-type inhibition of electric eel AChE using acetylthiocholine as substrate preincubated for 15 mins followed by substrate addition by Dixon plot analysis
[23] = target: Acetylcholinesterase (Electrophorus electricus) (UniProt O42275); conditions: 25 uM
Chain of Acetylcholinesterase (Electrophorus electricus) (O42275 24-633 limits assumed): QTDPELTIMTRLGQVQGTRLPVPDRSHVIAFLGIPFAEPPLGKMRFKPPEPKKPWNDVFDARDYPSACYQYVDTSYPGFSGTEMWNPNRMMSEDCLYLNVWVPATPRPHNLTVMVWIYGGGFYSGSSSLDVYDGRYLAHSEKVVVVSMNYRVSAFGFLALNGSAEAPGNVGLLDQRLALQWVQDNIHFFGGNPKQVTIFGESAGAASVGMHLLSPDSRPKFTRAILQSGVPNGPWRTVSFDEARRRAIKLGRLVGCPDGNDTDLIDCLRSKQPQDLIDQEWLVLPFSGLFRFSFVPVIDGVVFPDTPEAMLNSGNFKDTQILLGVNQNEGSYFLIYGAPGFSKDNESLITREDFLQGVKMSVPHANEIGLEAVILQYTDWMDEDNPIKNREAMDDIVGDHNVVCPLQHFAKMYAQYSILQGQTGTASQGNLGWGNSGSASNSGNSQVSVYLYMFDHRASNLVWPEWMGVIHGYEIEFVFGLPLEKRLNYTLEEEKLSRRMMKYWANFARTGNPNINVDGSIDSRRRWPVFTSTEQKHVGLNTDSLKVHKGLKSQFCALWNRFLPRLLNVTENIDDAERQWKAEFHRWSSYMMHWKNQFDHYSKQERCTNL
Description: Inhibition of electric eel AChE-induced amyloid beta (1 to 40) aggregation at 25 uM measured every 24 hrs for 7 days by Thioflavin T based fluorometric assay relative to propidium iodide

[24] = target: Acetylcholinesterase (Electrophorus electricus) (UniProt O42275); test: Inhibition of electric eel AChE-induced amyloid beta (1 to 40) aggregation at 25 uM measured every 24 hrs for 7 days by Thioflavin T based fluorometric assay relative to control

Description for HepG2: as §1

Compound | EC50 (SH-SY5Y [1]) [µM] | viability at 24 h, 1 µM (in vitro [2]) [%] | Activity (SH-SY5Y [3]) | EC50 (in vitro [4]) [µM] | Activity (SH-SY5Y [5]) | viability at 24 h, 5 µM (in vitro [6]) [%] | viability at 24 h, 50 µM (in vitro [7]) [%] | IC50 (Acetylcholinesterase [8]) [µM] | viability at 24 h, 0.1 µM (in vitro [9]) [%] | viability at 24 h, 25 µM (in vitro [10]) [%] | viability at 24 h, 10 µM (in vitro [11]) [%] | inhibition [12] [%] | Activity (SH-SY5Y [20]) | other results
CCOC(=O)C1=C(C)Oc2nc3c(c(N)c2C1c1cc2ccc(OC)cc2nc1Cl)CCCCC3 (centres undefined) | 4.7 | 99 | Active | 656 | inactive | 125 | 106 | 9.8 | 84.2 | 109 | 106 |  |  | 
COC(=O)C1=C(C)Oc2nc3c(c(N)c2C1c1cc2ccc(OC)cc2nc1Cl)CCCCC3 (centres undefined) | 5.63 | 93.2 | Active | 745 | Active | 95.9 | 75.1 | 1.87 | 90.8 | 98.6 | 85.1 | 50 |  | 
CCOC(=O)C1=C(C)Oc2nc3c(c(N)c2C1c1cc2ccc(OC)cc2nc1Cl)CCCC3 (centres undefined) | 2.3 | 130 |  | 942 | Active | 131 | 129 | 1.52 | 103 | 123 | 125 | 50 |  | 
COC(=O)C1=C(C)Oc2nc3c(c(N)c2C1c1cc2ccc(OC)cc2nc1Cl)CCC3 (centres undefined) | 11.8 | 94.2 | Active | 540 | Active | 114 | 93.2 | 1.66 | 104 | 118 | 98 |  |  | 
COc1ccc2cc(C3C4=C(CC(C)(C)CC4=O)Oc4nc5c(c(N)c43)CCCCC5)c(Cl)nc2c1 (centres undefined) | 5.6 | 97.3 |  | 330 | Active | 111 | 103 | 2.81 | 92.2 | 118 | 97.3 |  |  | 
CCOC(=O)C1=C(C)Oc2nc3c(c(N)c2C1c1cc2ccccc2nc1Cl)CCCC3 (centres undefined) | 1.54 | 104 | Active |  | Active | 99.7 | 93.6 | 0.48 | 110 | 95.5 | 96.5 | 50 | Active | Activity (SH-SY5Y [13]): Active; Activity (SH-SY5Y [14]): Active; inhibition [15]: Active; inhibition [16]: Active; EC50 (HepG2): 4820 µM; inhibition [17]: Active; selectivity ratio (in vitro [18]): 27; inhibition [19]: Active; inhibition [21]: Active
COC(=O)C1=C(C)Oc2nc3c(c(N)c2C1c1cc2ccc(OC)cc2nc1Cl)CCCC3 (centres undefined) | 0.63 | 105 | Active | 622 | Active | 132 | 82.5 | 0.47 | 128 | 133 | 113 | 50 | Active | Activity (SH-SY5Y [13]): Active; Ki (Acetylcholinesterase [22]): 0.0142 µM; Activity (SH-SY5Y [14]): Active; inhibition [23]: 65%; inhibition [24]: 75%; inhibition [17]: Active; selectivity ratio (in vitro [18]): 3.4; inhibition [19]: Active
COc1ccc2cc(C3C4=C(CC(C)(C)CC4=O)Oc4nc5c(c(N)c43)CCCC5)c(Cl)nc2c1 (centres undefined) | 12.2 | 95.6 | Active | 922 | Active | 113 | 90.6 | 14.8 | 93.8 | 113 | 103 |  |  | 
CCOC(=O)C1=C(C)Oc2nc3c(c(N)c2C1c1cc2cc(C)ccc2nc1Cl)CCCC3 (centres undefined) | 2.43 | 82.9 | Active | 128 | Active | 101 | 80.2 | 0.54 | 90.1 | 112 | 97.2 | 50 | Active | 
CCOC(=O)C1=C(C)Oc2nc3c(c(N)c2C1c1cc2ccc(OC)cc2nc1Cl)CCC3 (centres undefined) | 2.4 | 135 |  | 931 | Active | 119 | 112 | 4.02 | 115 | 106 | 116 |  |  | inhibition [24]: 28.3%
CCOC(=O)C1=C(C)Oc2nc3c(c(N)c2C1c1cc2cccc(OC)c2nc1Cl)CCCC3 (centres undefined) | 1.95 | 91.9 |  |  | Active | 100 | 99.5 | 0.61 | 107 | 100 | 96.5 |  | Active | EC50 (HepG2): 1080 µM
CCOC(=O)C1=C(C)Oc2nc3c(c(N)c2C1c1cc2cc(OC)ccc2nc1Cl)CCCC3 (centres undefined) | 0.34 | 110 |  | 73 | inactive | 135 | 68.5 | 2.23 | 128 | 125 | 116 |  |  | 
COc1ccc2cc(C3C4=C(CC(C)(C)CC4=O)Oc4nc5c(c(N)c43)CCC5)c(Cl)nc2c1 (centres undefined) | 0.63 | 91.6 |  |  | inactive | 113 | 94.9 | 0.58 | 85 | 124 | 102 |  |  | EC50 (HepG2): 1920 µM; selectivity ratio (in vitro [18]): 11
